For this assay, the system named is RSV A2. Put plainly: RSV antiviral cytopathic effect (CPE) assay. The format is cell-based. Particulars: human respiratory syncytial virus, HEp-2, 120 h, HEp2 cells infected with RSV A2 (moi ~0.01), 5 days, MTT readout. On the procedure: Compounds of the invention were tested for their antiviral activity against respiratory syncytial virus. Cytopathic effect (CPE) assays were performed essentially as described in the literature (see for example Watanabe et al, 1994, J. Virological Methods, 48:257). Serial dilutions of the test compounds were made in 96 well plates. HEp2 cells (1.0×10^4 cells/well) were infected with RSV at a low multiplicity of infection (e.g. RSV A2 at an moi of ˜0.01) and added to plates to assess antiviral activity. Uninfected HEp2 cells were used to assess compound cytotoxicity. Assays were incubated for 5 days at 37° C. in a 5% CO2 atmosphere. The extent of CPE was determined via metabolism of the vital dye 3-(4,5-dimethylthiaxol-2-yl)-2,5-diphenyltetrazolium bromide (MTT). MTT (1 mg/ml) was added to each well and plates incubated for 2 hours incubation at 37° C. Wells were aspirated, iso-propanol (200 μL) was added and absorbance values read at 540/650 nm. Compound concentrations that inhibited CPE by 50% (EC50) and developed cytotoxicity (CC50) were calculated using non-linear regression analysis.
Representative mean EC50 values obtained are also provided. In the inventors' experience, replicate EC50 values usually fall within three standard deviations of the mean.

The mark [1] stands for this setting: read-out: Activity Range (RSV A2 EC50).
Setting [2] is: mean EC50, read-out: RSV A2 EC50.

Molecules are shown by their SMILES. Where two headings read alike, the source gives them in different places.

The term EC50 denotes the midpoint of the concentration-response curve. For the compound `Cc1nocc1C(=O)N1CCN2C(=O)c3cccn3CC12c1ccc(OC(F)F)cc1` (stereo not drawn) [Compound 1, 10a-[4-(difluoromethoxy)phenyl]-1-[(3-methyl-1,2-oxazol-4-yl)carbonyl]-2,3,10,10a-tetrahydro-1H,5H-imidazo[1,2-a]pyrrolo[1,2-d]pyrazin-5-one], the EC50 reads like this: under setting [1], 50 to 99 nM; under setting [2], 89 nM. For `Cc1nocc1C(=O)N1CCN2C(=O)c3cccn3CC12c1ccc(F)cc1` (stereo not drawn) [Compound 2], in that order: less than 49 nM and 21 nM. For `Cc1ocnc1C(=O)N1CCN2C(=O)c3cccn3CC12c1ccc(Cl)cc1` (stereo not drawn) [Compound 3] the same measures were 100 to 499 nM and 140 nM. Turning to `Cc1nocc1C(=O)N1CCN2C(=O)c3cccn3CC12c1ccc(Cl)cc1` (stereo not drawn) [Compound 4], the concentration for a half-maximal effect (EC50) is, setting by setting: under setting [1], less than 49 nM; under setting [2], 19 nM. For `Cc1nocc1C(=O)N1CCN2C(=O)c3cccn3CC12c1cccc(F)c1` (stereo not drawn) [Compound 5], in that order: less than 49 nM and 34 nM. For `COc1ccc(C23Cn4cccc4C(=O)N2CCN3C(=O)c2conc2C)cc1` (stereo not drawn) [Compound 6] the same measures were 50 to 99 nM and 52 nM. For `O=C(c1cocn1)N1CCN2C(=O)c3cccn3CC12c1ccc(F)cc1` (stereo not drawn) [Compound 7] the same measures were 100 to 499 nM and 410 nM.

`COc1ccc(C23Cn4cccc4C(=O)N2CCN3C(=O)c2cocn2)cc1` (stereo not drawn) [Compound 8]: the half-maximal effective concentration (EC50) reads like this: under setting [1], 500 to 10000 nM; under setting [2], 1800 nM.

Turning to `Cc1ccc(C23Cn4cccc4C(=O)N2CCN3C(=O)c2conc2C)cc1` (stereo not drawn) [Compound 9], the concentration giving a half-maximal response (EC50) was less than 49 nM under setting [1] and 13 nM under setting [2]. Regarding `CCN(CC)S(=O)(=O)c1ccc(C23Cn4cccc4C(=O)N2CCN3C(=O)c2conc2C)cc1` (stereo not drawn) [Compound 10], the EC50 under setting [1] was more than 10000 nM. For `Cc1nocc1C(=O)N1CCN2C(=O)c3nccn3CC12c1ccc(Cl)cc1` (stereo not drawn) [Compound 11], the concentration giving a half-maximal response (EC50) reads like this: under setting [1], 100 to 499 nM; under setting [2], 170 nM. For `Cc1nocc1C(=O)N1CCN2C(=O)c3c(C)ncn3CC12c1ccc(Cl)cc1` (stereo not drawn) [Compound 12], in that order: 500 to 10000 nM and 7500 nM. For `Cc1nocc1C(=O)N1CCN2C(=O)c3cncn3CC12c1ccc(Cl)cc1` (stereo not drawn) [Compound 13], in that order: 500 to 10000 nM and 1200 nM. For `Cc1ccc(C23Cn4cccc4C(=O)N2CCN3C(=O)c2cnoc2C)cc1F` (stereo not drawn) [Compound 14] the same measures were 50 to 99 nM and 94 nM.

Regarding `O=C(c1ccoc1)N1CCN2C(=O)c3cccn3CC12c1ccc(Cl)cc1` (stereo not drawn) [Compound 15], the concentration giving a half-maximal response (EC50) was 50 to 99 nM under setting [1] and 56 nM under setting [2].

For `O=C(c1ccon1)N1CCN2C(=O)c3cccn3CC12c1ccc(Cl)cc1` (stereo not drawn) [Compound 16], the concentration giving a half-maximal response (EC50) by setting is: under setting [1], 500 to 10000 nM; under setting [2], 980 nM.

For the compound `Cn1cc(C(=O)N2CCN3C(=O)c4cccn4CC23c2ccc(Cl)cc2)c(C(F)(F)F)n1` (stereo not drawn) [Compound 17], the EC50 runs as follows: under setting [1], 500 to 10000 nM; under setting [2], 860 nM. For `O=C1c2cccn2CC2(c3ccc(Cl)cc3)N1CCN2C(=O)C1CC1` (stereo not drawn) [Compound 18] the same measures were 500 to 10000 nM and 4100 nM.

Regarding `Cc1nocc1C(=O)N1CCN2C(=O)c3cccn3CC12C1CCCCC1` (stereo not drawn) [Compound 19], the EC50 by setting is: under setting [1], 50 to 99 nM; under setting [2], 65 nM.

For the compound `CCC12Cn3cccc3C(=O)N1CCN2C(=O)c1conc1C` (stereo not drawn) [Compound 20], the 50% effective concentration (EC50) reads like this: under setting [1], 500 to 10000 nM; under setting [2], 6700 nM. As for `Cc1nocc1C(=O)N1CCN2C(=O)c3cccn3CC12C(C)(C)C` (stereo not drawn) [Compound 21], under setting [1], the EC50 was more than 10000 nM. For `Cc1nocc1C(=O)N1CCN2C(=O)c3ccc(Cl)n3CC12c1ccc(Cl)cc1` (stereo not drawn) [Compound 22, 8-chloro-10a-(4-chlorophenyl)-1-[(3-methyl-1,2-oxazol-4-yl)carbonyl]-2,3,10,10a-tetrahydro-1H,5H-imidazo[1,2-a]pyrrolo[1,2-d]pyrazin-5-one], the 50% effective concentration (EC50) reads like this: under setting [1], less than 49 nM; under setting [2], 2.2 nM. For `COc1ccc(C23Cn4c(Cl)ccc4C(=O)N2CCN3C(=O)c2conc2C)cc1` (stereo not drawn) [Compound 23], in that order: less than 49 nM and 8 nM. `CC(=O)c1cc2n(c1)CC1(c3ccc(Cl)cc3)N(C(=O)c3cnoc3C)CCN1C2=O` (stereo not drawn) [Compound 24, 7-acetyl-10a-(4-chlorophenyl)-1-[(5-methyl-1,2-oxazol-4-yl)carbonyl]-2,3,10,10a-tetrahydro-1H,5H-imidazo[1,2-a]pyrrolo[1,2-d]pyrazin-5-one]: the 50% effective concentration (EC50) under setting [1] is more than 10000 nM.

Regarding `Cc1nocc1C(=O)N1CCN2C(=O)c3ccc(CN4CCOCC4)n3CC12c1ccc(Cl)cc1` (stereo not drawn) [Compound 25, 10a-(4-chlorophenyl)-1-[(3-methyl-1,2-oxazol-4-yl)carbonyl]-8-(morpholin-4-ylmethyl)-2,3,10,10a-tetrahydro-1H,5H-imidazo[1,2-a]pyrrolo[1,2-d]pyrazin-5-one], the EC50 under setting [1] is 50 to 99 nM and the concentration giving a half-maximal response (EC50) under setting [2] amounted to 65 nM. On to `Cc1nocc1C(=O)N1CCN2C(=O)c3cc(CN4CCOCC4)cn3CC12c1ccc(Cl)cc1` (stereo not drawn) [Compound 26], for which, under setting [1], the half-maximal effective concentration (EC50) is more than 10000 nM. As to `Cc1nocc1C(=O)N1CCN2C(=O)c3cc(CN(C)C)cn3CC12c1ccc(Cl)cc1` (stereo not drawn) [Compound 27], the concentration giving a half-maximal response (EC50) was 500 to 10000 nM under setting [1] and 9500 nM under setting [2]. For the compound `Cc1nocc1C(=O)N1CCN2C(=O)c3ccc(CO)n3CC12c1ccc(Cl)cc1` (stereo not drawn) [Compound 28], the EC50 was 50 to 99 nM under setting [1] and 88 nM under setting [2]. As to `Cc1nocc1C(=O)N1CCN2C(=O)c3cc(CO)cn3CC12c1ccc(Cl)cc1` (stereo not drawn) [Compound 29], the EC50 runs as follows: under setting [1], 500 to 10000 nM; under setting [2], 1000 nM. For `Cc1nocc1C(=O)N1CCN2C(=O)c3cc(-c4cccnc4)cn3CC12c1ccc(Cl)cc1` (stereo not drawn) [Compound 30, 10a-(4-chlorophenyl)-1-[(3-methyl-1,2-oxazol-4-yl)carbonyl]-7-(pyridin-3-yl)-2,3,10,10a-tetrahydro-1H,5H-imidazo[1,2-a]pyrrolo[1,2-d]pyrazin-5-one] the same measures were less than 49 nM and 36 nM. For `Cc1nocc1C(=O)N1CCN2C(=O)c3cc(-c4cnn(C)c4)cn3CC12c1ccc(Cl)cc1` (stereo not drawn) [Compound 31], in that order: less than 49 nM and 7.6 nM. For `Cc1oncc1C(=O)N1CCN2C(=O)c3ccc(-c4ccncc4)n3CC12c1ccc(Cl)cc1` (stereo not drawn) [Compound 32, 10a-(4-chlorophenyl)-1-[(5-methyl-1,2-oxazol-4-yl)carbonyl]-8-(pyridin-4-yl)-2,3,10,10a-tetrahydro-1H,5H-imidazo[1,2-a]pyrrolo[1,2-d]pyrazin-5-one], in that order: 500 to 10000 nM and 690 nM. For the compound `Cc1nocc1C(=O)N1CCN2C(=O)c3ccc(-c4cccnc4)n3CC12c1ccc(Cl)cc1` (stereo not drawn) [Compound 33], the 50% effective concentration (EC50) was 500 to 10000 nM under setting [1] and 3100 nM under setting [2]. For `COc1ccc(C23Cn4c(ccc4-c4cnn(C)c4)C(=O)N2CCN3C(=O)c2conc2C)cc1` (stereo not drawn) [Compound 34], in that order: 100 to 499 nM and 380 nM. For `Cc1nocc1C(=O)N1CCN2C(=O)c3cccn3CC12c1ccccc1` (stereo not drawn) [Compound 35, 1-[(3-methyl-1,2-oxazol-4-yl)carbonyl]-10a-phenyl-2,3,10,10a-tetrahydro-1H,5H-imidazo[1,2-a]pyrrolo[1,2-d]pyrazin-5-one] the same measures were 50 to 99 nM and 54 nM. As for `Cc1nocc1C(=O)N1CCN2C(=O)c3cccn3CC12c1ccc(N2CCCC2)cc1` (stereo not drawn) [Compound 36, 1-[(3-methyl-1,2-oxazol-4-yl)carbonyl]-10a-[4-(pyrrolidin-1-yl)phenyl]-2,3,10,10a-tetrahydro-1H,5H-imidazo[1,2-a]pyrrolo[1,2-d]pyrazin-5-one], the half-maximal effective concentration (EC50) by setting is: under setting [1], 100 to 499 nM; under setting [2], 480 nM. For `Cc1nocc1C(=O)N1CCN2C(=O)c3cccn3CC12c1ccc(C#N)cc1` (stereo not drawn) [Compound 37, 4-{1-[(3-methyl-1,2-oxazol-4-yl)carbonyl]-5-oxo-2,3-dihydro-1H,5H-imidazo[1,2-a]pyrrolo[1,2-d]pyrazin-10a(10H)-yl}benzonitrile], in that order: 100 to 499 nM and 120 nM. Regarding `Cc1nocc1C(=O)N1CCN2C(=O)c3cc(C(=O)N(C)C)cn3CC12c1ccc(Cl)cc1` (stereo not drawn) [Compound 38, 10a-(4-chlorophenyl)-N,N-dimethyl-1-[(3-methyl-1,2-oxazol-4-yl)carbonyl]-5-oxo-2,3,10,10a-tetrahydro-1H,5H-imidazo[1,2-a]pyrrolo[1,2-d]pyrazine-7-carboxamide], the EC50 under setting [1] was more than 10000 nM.

`Cc1nocc1C(=O)N1CCN2C(=O)c3cccc(=O)n3CC12c1ccc(Cl)cc1` (stereo not drawn) [Compound 39, 11a-(4-chlorophenyl)-1-[(3-methyl-1,2-oxazol-4-yl)carbonyl]-2,3,11,11a-tetrahydro-1H-imidazo[1,2-a]pyrido[1,2-d]pyrazine-5,9-dione]: the EC50 runs as follows: under setting [1], less than 49 nM; under setting [2], 15 nM. For `Cc1oncc1C(=O)N1CCN2C(=O)c3cccc(=O)n3CC12c1ccc(Cl)cc1` (stereo not drawn) [Compound 40], in that order: 100 to 499 nM and 210 nM.

These data come from US8604034B2, “Substituted imidazo[1,2-α]pyrrolo[1,2-d]pyrazines for treating respiratory syncytial virus (RSV) infections” (Biota Scientific Management Pty Ltd., priority 2010, dated 2013).
